PubChem BioAssay (NCI)
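GI50 marks 50% less growth. At the TGI there is no net growth.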

Experiments:
Assay in all cases: NCI tumour cell line growth inhibition, 384-well format
MDA-MB-231 breast = tested on: MDA-MB-231 breast
CAKI-1 renal = tested on: CAKI-1 renal
K-562 leukemia = tested on: K-562 leukemia
A549 NSCLC = tested on: A549 NSCLC
SK-OV-3 ovarian = tested on: SK-OV-3 ovarian
IGROV1 ovarian = tested on: IGROV1 ovarian
SF-539 CNS = tested on: SF-539 CNS
HS 578T breast = tested on: HS 578T breast
OVCAR-5 ovarian = tested on: OVCAR-5 ovarian
PC-3 prostate = tested on: PC-3 prostate
SF-268 CNS = tested on: SF-268 CNS
HCT-15 colon = tested on: HCT-15 colon
NCI-H322M lung = tested on: NCI-H322M lung
UO-31 renal = tested on: UO-31 renal
SK-MEL-28 melanoma = tested on: SK-MEL-28 melanoma
HOP-62 NSCLC = tested on: HOP-62 NSCLC
NCI-H226 lung = tested on: NCI-H226 lung
M14 melanoma = tested on: M14 melanoma
A498 renal = tested on: A498 renal
HT29 colon = tested on: HT29 colon
BT-549 breast = tested on: BT-549 breast
KM12 colon = tested on: KM12 colon
SW-620 colon = tested on: SW-620 colon
NCI-H522 lung = tested on: NCI-H522 lung
HCC-2998 colon = tested on: HCC-2998 colon
OVCAR-3 ovarian = tested on: OVCAR-3 ovarian
EKVX NSCLC = tested on: EKVX NSCLC
MOLT-4 leukemia = tested on: MOLT-4 leukemia
RXF 393 renal = tested on: RXF 393 renal
SR leukemia = tested on: SR leukemia
RPMI-8226 leukemia = tested on: RPMI-8226 leukemia
TK-10 renal = tested on: TK-10 renal
NCI/ADR-RES ovarian = tested on: NCI/ADR-RES ovarian
786-0 renal = tested on: 786-0 renal
SNB-19 CNS = tested on: SNB-19 CNS
SNB-75 CNS = tested on: SNB-75 CNS
SK-MEL-5 melanoma = tested on: SK-MEL-5 melanoma
UACC-257 melanoma = tested on: UACC-257 melanoma
LOX IMVI melanoma = tested on: LOX IMVI melanoma
HOP-92 NSCLC = tested on: HOP-92 NSCLC
SN12C renal = tested on: SN12C renal
NCI-H23 lung = tested on: NCI-H23 lung
ACHN renal = tested on: ACHN renal
MDA-MB-468 breast = tested on: MDA-MB-468 breast
MDA-MB-435 melanoma = tested on: MDA-MB-435 melanoma
UACC-62 melanoma = tested on: UACC-62 melanoma
COLO 205 colon = tested on: COLO 205 colon
MCF7 breast = tested on: MCF7 breast
OVCAR-4 ovarian = tested on: OVCAR-4 ovarian
OVCAR-8 ovarian = tested on: OVCAR-8 ovarian
DU-145 prostate = tested on: DU-145 prostate
MALME-3M melanoma = tested on: MALME-3M melanoma
SF-295 CNS = tested on: SF-295 CNS
T-47D breast = tested on: T-47D breast
HL-60(TB) leukemia = tested on: HL-60(TB) leukemia
NCI-H460 NSCLC = tested on: NCI-H460 NSCLC
CCRF-CEM leukemia = tested on: CCRF-CEM leukemia

**Q.** For `COc1cc2c(Oc3ccc4[nH]c(C)cc4c3F)ccnc2cc1OCC1(N)CC1`, which GI50 (MDA-MB-231 breast) is on record?
**A.** 1.17 µM

**Q.** What about the TGI (MDA-MB-231 breast) of the same compound?
**A.** 3.54 µM

**Q.** And the GI50 (CAKI-1 renal)?
**A.** 0.881 µM

**Q.** What about the TGI (CAKI-1 renal) of the same compound?
**A.** 2.31 µM

**Q.** What about the GI50 (K-562 leukemia) of the same compound?
**A.** 0.421 µM

**Q.** What about the TGI (K-562 leukemia) of the same compound?
**A.** 1.39 µM

**Q.** What about the GI50 (A549 NSCLC) of the same compound?
**A.** 1.08 µM

**Q.** And the TGI (A549 NSCLC)?
**A.** 3.15 µM

**Q.** What about the GI50 (SK-OV-3 ovarian) of the same compound?
**A.** 0.539 µM

**Q.** And the TGI (SK-OV-3 ovarian)?
**A.** 1.92 µM

**Q.** What about the GI50 (IGROV1 ovarian) of the same compound?
**A.** 1.2 µM

**Q.** And the TGI (IGROV1 ovarian)?
**A.** 4.35 µM

**Q.** And the GI50 (SF-539 CNS)?
**A.** 0.27 µM

**Q.** What about the TGI (SF-539 CNS) of the same compound?
**A.** 1.14 µM

**Q.** And the GI50 (HS 578T breast)?
**A.** 0.294 µM

**Q.** What about the TGI (HS 578T breast) of the same compound?
**A.** 1.04 µM

**Q.** What about the GI50 (OVCAR-5 ovarian) of the same compound?
**A.** 1.92 µM

**Q.** And the TGI (OVCAR-5 ovarian)?
**A.** 3.87 µM

**Q.** And the GI50 (PC-3 prostate)?
**A.** 0.809 µM

**Q.** And the TGI (PC-3 prostate)?
**A.** 2.29 µM

**Q.** What about the GI50 (SF-268 CNS) of the same compound?
**A.** 0.683 µM

**Q.** What about the TGI (SF-268 CNS) of the same compound?
**A.** 2.07 µM

**Q.** What about the GI50 (HCT-15 colon) of the same compound?
**A.** 0.493 µM

**Q.** And the TGI (HCT-15 colon)?
**A.** 1.76 µM

**Q.** And the GI50 (NCI-H322M lung)?
**A.** 1.44 µM

**Q.** What about the TGI (NCI-H322M lung) of the same compound?
**A.** 3.42 µM

**Q.** What about the GI50 (UO-31 renal) of the same compound?
**A.** 1.3 µM

**Q.** What about the TGI (UO-31 renal) of the same compound?
**A.** 2.76 µM

**Q.** What about the GI50 (SK-MEL-28 melanoma) of the same compound?
**A.** 0.828 µM

**Q.** And the TGI (SK-MEL-28 melanoma)?
**A.** 2.08 µM

**Q.** And the GI50 (HOP-62 NSCLC)?
**A.** 0.664 µM

**Q.** And the TGI (HOP-62 NSCLC)?
**A.** 2.06 µM

**Q.** What about the GI50 (NCI-H226 lung) of the same compound?
**A.** 1.11 µM

**Q.** What about the TGI (NCI-H226 lung) of the same compound?
**A.** 3.02 µM

**Q.** What about the GI50 (M14 melanoma) of the same compound?
**A.** 0.519 µM

**Q.** What about the TGI (M14 melanoma) of the same compound?
**A.** 1.66 µM

**Q.** What about the GI50 (A498 renal) of the same compound?
**A.** 0.4 µM

**Q.** And the TGI (A498 renal)?
**A.** 1.69 µM

**Q.** What about the GI50 (HT29 colon) of the same compound?
**A.** 0.364 µM

**Q.** What about the TGI (HT29 colon) of the same compound?
**A.** 1.45 µM

**Q.** What about the GI50 (BT-549 breast) of the same compound?
**A.** 0.383 µM

**Q.** What about the TGI (BT-549 breast) of the same compound?
**A.** 1.19 µM

**Q.** And the GI50 (KM12 colon)?
**A.** 0.474 µM

**Q.** What about the TGI (KM12 colon) of the same compound?
**A.** 1.74 µM

**Q.** And the GI50 (SW-620 colon)?
**A.** 0.541 µM

**Q.** And the TGI (SW-620 colon)?
**A.** 1.95 µM

**Q.** And the GI50 (NCI-H522 lung)?
**A.** 0.274 µM

**Q.** And the TGI (NCI-H522 lung)?
**A.** 0.672 µM

**Q.** And the GI50 (HCC-2998 colon)?
**A.** 1.37 µM

**Q.** And the TGI (HCC-2998 colon)?
**A.** 2.85 µM

**Q.** What about the GI50 (OVCAR-3 ovarian) of the same compound?
**A.** 0.278 µM

**Q.** What about the TGI (OVCAR-3 ovarian) of the same compound?
**A.** 0.797 µM

**Q.** And the GI50 (EKVX NSCLC)?
**A.** 0.867 µM

**Q.** And the TGI (EKVX NSCLC)?
**A.** 2.85 µM

**Q.** And the GI50 (MOLT-4 leukemia)?
**A.** 0.223 µM

**Q.** And the TGI (MOLT-4 leukemia)?
**A.** 0.419 µM

**Q.** What about the GI50 (RXF 393 renal) of the same compound?
**A.** 0.648 µM

**Q.** What about the TGI (RXF 393 renal) of the same compound?
**A.** 2.09 µM

**Q.** And the GI50 (SR leukemia)?
**A.** 0.182 µM

**Q.** What about the TGI (SR leukemia) of the same compound?
**A.** 0.35 µM

**Q.** What about the GI50 (RPMI-8226 leukemia) of the same compound?
**A.** 0.753 µM

**Q.** What about the TGI (RPMI-8226 leukemia) of the same compound?
**A.** 1.99 µM

**Q.** What about the GI50 (TK-10 renal) of the same compound?
**A.** 1.6 µM

**Q.** And the TGI (TK-10 renal)?
**A.** 3.32 µM

**Q.** And the GI50 (NCI/ADR-RES ovarian)?
**A.** 0.936 µM

**Q.** What about the TGI (NCI/ADR-RES ovarian) of the same compound?
**A.** 2.21 µM

**Q.** What about the GI50 ([…]-0 renal) of the same compound?
**A.** 0.465 µM

**Q.** And the TGI (786-0 renal)?
**A.** 1.63 µM

**Q.** And the GI50 (SNB-19 CNS)?
**A.** 0.821 µM

**Q.** And the TGI (SNB-19 CNS)?
**A.** 2.97 µM

**Q.** What about the GI50 (SNB-75 CNS) of the same compound?
**A.** 0.314 µM

**Q.** And the TGI (SNB-75 CNS)?
**A.** 1.07 µM

**Q.** What about the GI50 (SK-MEL-5 melanoma) of the same compound?
**A.** 0.416 µM

**Q.** And the TGI (SK-MEL-5 melanoma)?
**A.** 1.32 µM

**Q.** And the GI50 (UACC-257 melanoma)?
**A.** 0.427 µM

**Q.** What about the TGI (UACC-257 melanoma) of the same compound?
**A.** 1.29 µM

**Q.** And the GI50 (LOX IMVI melanoma)?
**A.** 0.705 µM

**Q.** And the TGI (LOX IMVI melanoma)?
**A.** 1.99 µM

**Q.** What about the GI50 (HOP-92 NSCLC) of the same compound?
**A.** 0.477 µM

**Q.** And the TGI (HOP-92 NSCLC)?
**A.** 1.9 µM

**Q.** And the GI50 (SN12C renal)?
**A.** 1.12 µM

**Q.** What about the TGI (SN12C renal) of the same compound?
**A.** 2.86 µM

**Q.** And the GI50 (NCI-H23 lung)?
**A.** 1.03 µM

**Q.** And the TGI (NCI-H23 lung)?
**A.** 2.52 µM

**Q.** And the GI50 (ACHN renal)?
**A.** 1.16 µM

**Q.** What about the TGI (ACHN renal) of the same compound?
**A.** 3.44 µM

**Q.** And the GI50 (MDA-MB-468 breast)?
**A.** 0.253 µM

**Q.** And the TGI (MDA-MB-468 breast)?
**A.** 0.567 µM

**Q.** And the GI50 (MDA-MB-435 melanoma)?
**A.** 0.228 µM

**Q.** What about the TGI (MDA-MB-435 melanoma) of the same compound?
**A.** 0.497 µM

**Q.** And the GI50 (UACC-62 melanoma)?
**A.** 0.396 µM

**Q.** What about the TGI (UACC-62 melanoma) of the same compound?
**A.** 1.41 µM

**Q.** What about the GI50 (COLO 205 colon) of the same compound?
**A.** 1.3 µM

**Q.** What about the TGI (COLO 205 colon) of the same compound?
**A.** 3.01 µM

**Q.** And the GI50 (MCF7 breast)?
**A.** 0.359 µM

**Q.** What about the TGI (MCF7 breast) of the same compound?
**A.** 7.73 µM

**Q.** And the GI50 (OVCAR-4 ovarian)?
**A.** 0.543 µM

**Q.** What about the TGI (OVCAR-4 ovarian) of the same compound?
**A.** 3.18 µM

**Q.** And the GI50 (OVCAR-8 ovarian)?
**A.** 1.51 µM

**Q.** What about the TGI (OVCAR-8 ovarian) of the same compound?
**A.** 3.27 µM

**Q.** What about the GI50 (DU-145 prostate) of the same compound?
**A.** 2.16 µM

**Q.** And the TGI (DU-145 prostate)?
**A.** 7.36 µM

**Q.** What about the GI50 (MALME-3M melanoma) of the same compound?
**A.** 0.375 µM

**Q.** What about the TGI (MALME-3M melanoma) of the same compound?
**A.** 1.46 µM

**Q.** And the GI50 (SF-295 CNS)?
**A.** 0.346 µM

**Q.** What about the TGI (SF-295 CNS) of the same compound?
**A.** 1.25 µM

**Q.** What about the GI50 (T-47D breast) of the same compound?
**A.** 1.6 µM

**Q.** And the TGI (T-47D breast)?
**A.** 5.36 µM

**Q.** What about the GI50 (HL-60(TB) leukemia) of the same compound?
**A.** 0.24 µM

**Q.** What about the TGI (HL-60(TB) leukemia) of the same compound?
**A.** 0.463 µM

**Q.** And the GI50 (NCI-H460 NSCLC)?
**A.** 0.714 µM

**Q.** And the TGI (NCI-H460 NSCLC)?
**A.** 2.03 µM

**Q.** What about the GI50 (CCRF-CEM leukemia) of the same compound?
**A.** 0.722 µM

**Q.** What about the TGI (CCRF-CEM leukemia) of the same compound?
**A.** 1.88 µM
